Experimental data published in patent US11472846B2, “Compositions and methods for treating diseases by inhibiting exosome release” (priority 2016, dated 2022).
Entries after “also recorded” stand apart in the source; their conditions may differ. Where two headings read alike, the source gives them in different places.

Columns and labels:
Type in all cases: cell-based, human
[1] = tested on: MCF-7 breast cancer cells; test: Exosome nanoparticle tracking analysis (NanoSight NTA), MCF-7; settings: MCF-7 cells treated 48 hr; untreated control 5.16×10^9 particles/ml
Description: (§1) 1-6. Exosome isolation and purification. Exosomes were isolated from breast cancer cells by differential centrifugation as previously described (Ali SA. et al., 2010). Untreated tumor cells were used as a control. Briefly, the above treated and untreated cell culture supernatants were centrifuged at 400×g for 10 minutes. The supernatants were transferred to a clear tube and centrifuged at 10,000×g for 30 minutes. The supernatants from the second spin were ultracentrifuged at 200,000×g for 2 hours to pellet exosomes. Finally, the exosome pellets were re-suspended with PBS and stored at 4° C. until used for analysis.
(§2) 1-8. Exosome nanoparticle tracking analysis (NTA). Analysis of absolute size distribution of exosomes was performed using NanoSight LM10 with NTA2.3 (NanoSight Ltd., Minton Park, UK). Particles were automatically tracked and sized based on Brownian motion and the diffusion coefficient. After isolation, the untreated and treated breast cancer exosomes were re-suspended in 0.5 mL of PBS. Control medium and filtered PBS were used as controls in this technique. The NTA measurement conditions were: temperature=21.0+/−0.5° C.; viscosity=0.99+/−0.01 cP; frames per second=25; measurement time=30 s. The detection threshold was similar in all samples. Two recordings were performed for each sample.
(§3) 7-11. Exosome nanoparticle tracking analysis (NTA). […]

[2] = tested on: MCF-7 breast cancer cells; test: Propidium iodide cell cycle analysis (Cellometer), MCF-7; settings: MCF-7 cells, 48 hours, 1.12 μM/mL peptide
Description: 1-4. Cell cycle analysis. MCF-7 and MDA-MB-231 breast cancer cells were cultured into 6-well plates at 4×10^5 cells per well and treated with either paclitaxel and cisplatin or combined with PEG-SMRwt-CLU peptide for 24 and 48 hours. Cell cycle analysis was performed using a propidium iodide cell cycle assay and measured using a Cellometer (Nexcelom, MA). […] Breast cancer cells were seeded into 96-well plates at 5×10^3 cells/ml, and treated with either 1.6 μM//mL of paclitaxel, or 3 mg/mL cisplatin, 1.12 μM/mL PEG-SMRwt-CLU peptide, SMR peptide combined with paclitaxel or with cisplatin (MCF-7 cells). Alternatively 1.6 μM/mL paclitaxel or 2 mg/mL cisplatin or 0.28 μM/mL of PEG-SMR-CLU peptide, or the peptide combined with each of these drugs was used for MDA-MB-231 cells. The concentrations for cisplatin and paclitaxel were experimentally determined IC50 dosages for the different cell types (data not shown). At the end of the 24 hr or 48 hr incubations, the cells were assessed by the Cellometry imaging cytometry assay.
All above steps were done on MCF-7 and MDA-MB-231 cells separately. […]

[3] = tested on: MDA-MB-231 breast cancer cells; test: MTT proliferation assay, MDA-MB-231; settings: MDA-MB-231 cells, 24 hours
Description: (§4) 1-3. Viability and proliferation. Human breast cancer cell lines were seeded into 96-well plates (5000 cells/well) and treated for 24 hours with various concentrations of SMR peptides including PEG-SMRwt-Clu, PEG-SMRwt and PEG-SMRmut to determine IC50 (inhibition concentration). Cell proliferation was determined using the MTT assay (Molecular Devices, Sunnyvale, Calif.). Control experiments were performed with MTT treated cells alone and untreated cells, and on this basis, the incubation times of 24 hr and 48 hr were used for an MTT assay of peptide-treated cells (Stockerta JC. et al., 2012 and Riss TL. et al., 2015).
(§5) 7-4. Cell proliferation and cytotoxicity assay. Human breast cancer cell lines MCF-7, MDAMB-231, and leukemia K562 cells, and non-tumorigenic MCF-10A cells are seeded into 96-well plates (5000 cells/well) and treated for 24 hours with 0-1120 nM SMRwt-CPP or SMRmut-CPP (FIG. 10). Cell proliferation was determined using the MTT [3-(4,5-dimethylthiazol-2-yl)-2,5-diphenyltetrazolium bromide] dye assay by SpectraMax M5 Fluorescence Plate Reader (Molecular Devices. Sunnyvale, Calif.). Cell viability was estimated by the conversion of yellow MTT by mitochondrial dehydrogenases of living cells to purple formazon (MTT assay). Control experiments were performed with cells treated or untreated with MTT, and on this basis, an incubation time of 24 hours was used for MTT assays of peptide-treated cells (Huang, M. B., et al., Oncotarget, 2017. 8(7): pp. 11302-11315.). Statistical significance of results was determined from three independent experiments including triplet or quadruplet sets in each experiment.

[4] = tested on: MCF-7 breast cancer cells; test: MTT proliferation assay, MCF-7; settings: MCF-7 cells, 24 hours
Description: as §4, §5

[5] = tested on: MDA-MB-231 breast cancer cells; test: Exosome nanoparticle tracking analysis (NanoSight NTA), MDA-MB-231; settings: MDA-MB-231 cells treated 48 hr; control 4.7×10^9 particles/ml
Description: as §1, §2, §3

[6] = tested on: MCF-7 breast cancer cells; test: Annexin V-FITC/PI apoptosis assay, MCF-7; settings: MCF-7 cells, 48 hours
Description: 1-5. Assessment of apoptosis. Breast cancer cells were seeded into 6-well plates at 4×10^5 cells per well and treated with either paclitaxel or cisplatin or various concentrations of SMR peptides for 24 hours or different time point. SMR as described above. Apoptosis was determined the using Annexin V-FITC detection kit (Nexcelom, MA) and visualized by Cellometer imaging cytometry.

[7] = tested on: non-tumorigenic MCF-10A cells; test: MTT proliferation assay, MCF-10A; settings: 24 hours, up to 1120 nM/mL
Description: as §4
as §5, with “Control experiments were performed with cells treated or untreated with MTT, and on this basis, an incubation time of 24 hours was used for MTT assays of peptide-treated cells (Huang, M. B., et al., Oncotarget, 2017. 8(7): pp. 11302-11315.).” left out

[8] = MTT, read-out: 50% inhibition of cell growth
[9] = read-out: SMR at IC50 concentration

Sequence | number of exosome particles (NTA) [1] | cell cycle effect [2] | IC50 [3, 8] [µM] | IC50 [3, 9] [µM] | IC50 [4, 8] [µM] | IC50 [4, 9] [µM] | number of exosome particles (NTA) [5] | effect on paclitaxel/cisplatin-induced apoptosis [6] | effect on proliferation (in words) [7]
NXNVGFPVAAVGFPVHPLSKHPYWSQP (SEQ ID NO: 37) [PEG-SMRwt-Clu] | 3.28×10^8 particles/ml | induced cell cycle arrest | 0.28 | 0.28 | 1.12 | 1.12 | 6.8×10^8 particles/ml | increased the level of drug-induced apoptosis | 
VGFPVAAVGFPVGRKKRRQRRRPPQ [SMRwt-CPP] |  |  |  |  |  |  |  |  | not affected; also recorded: no effect
